This passage reports IC50 results from US20260317335A1, “COMPOUNDS OF FUSED PYRROLE RINGS OR FUSED PYRIDINE RINGS” (PHARMAENGINE, INC., priority 2023, published 2026).

In this assay the test system is HCC1569 (CCNE1-amplified breast cancer cell line). Description: Cell Proliferation Assay (CellTiter-Glo, 7 days). The class given is cell-based. On the procedure:
The sensitivity of cancer cell lines with normal or elevated CCNE1 levels to test compounds was evaluated in a cell proliferation assay. Cell lines were maintained in ATCC-recommended culture media supplemented with 10% FBS and 1% penicillin/streptomycin in a humidified 5% CO2 incubator. All test compounds were stored as 20 mM DMSO stock solutions.
On Day 0, CCNE1-wild type (wt) and CCNE1-amplified (amp) cells were seeded into 384-well plates and incubated for 16 to 24 hours in a humidified 5% CO2 incubator. On Day 1, test compounds were dispensed into wells at specified concentrations (n=2), with DMSO volume normalized to the highest concentration. Plates with compound-treated cells were incubated for 7 days in a humidified 5% CO2 incubator.
On Day 7, plates were removed from the incubator and equilibrated to room temperature. Relative inhibition was assessed by adding CellTiter-Glo reagent. Data were plotted as a percentage of the DMSO control for each compound in each cell line. IC50 values were calculated using a four-parameter nonlinear regression model (GraphPad Prism).
In general terms: Cellular ATP, detected with luciferase, serves as a proxy for viable cell number.
As a reminder, the IC50 is the concentration needed to halve the response being measured. Lower therefore signals inhibition by little substance. On to `Cc1nc2c3c(c1C)C=CNC(=O)c3c(N)n2-c1c(C)c(F)cc2[nH]ncc12` [Compound 138], for which the IC50 is > 1000 nM.
With `Cc1cc2c(C(N)=O)c(N)n(-c3c(C)ccc(O)c3C)c2nc1C` [Rp6306, reference compound], the IC50 was determined as 18 nM.
The value for `Cc1ccc2[nH]ncc2c1-n1c(N)c2c3c(c(C)c(C)nc31)C=CNC2=O` [Compound 126] was 666 nM; that for `Cc1nc2c3c(c1C)C=CNC(=O)c3c(N)n2-c1c(Cl)cc(F)c2[nH]ncc12` [Compound 136] was > 1000 nM; that for `Cc1nc2c3c(c1C)C=CNC(=O)c3c(N)n2-c1c(Cl)c(F)cc2[nH]ncc12` [Compound 137] was 566 nM.
